Data as given in patent US10118954B2, “Apelin analogues” (University of Ulster, priority 2014, dated 2018).
Where no end group is shown, it is not given here.

Legend:
[1] = Degradation of apelin peptides by plasma from fasted normal NIH Swiss mice (rp-HPLC, MALDI-TOF MS); format: in vitro ADME
Procedure: Degradation of Apelin Peptides by Plasma from Fasted Normal NIH Swiss Mice […] The enzymatic reaction was stopped by adding 50 μl of 10% TFA (0.1% v/v; Sigma-Aldrich Ltd, (Poole, Dorset, UK) and frozen at -20° C. until separation. The terminated reaction products were then applied to an analytical Vydac C-8 column (4.6×150 mm; Phenomenex, Macclesfield, Cheshire, UK) for rp-HPLC analysis. The absorbance was monitored at 214 nm using a […] UV 2000 detector (Thermoquest Limited, Manchester, UK) and the traces were recorded by Thermo Electron ChromQuest data collection software (version 4). HPLC peak fractions were collected manually and subjected to MALDI-TOF mass spectrometry for peptide identification. Degradation profile of various apelin-13 related analogues: plasma incubations (4 h) were separated on a Vydac C-8 analytical HPLC column and all peaks were collected prior to analysis by MALDI-TOF mass spectrometry. Degradation fragments, actual molecular weights (Mr) and retention times (RT) are shown. Theoretical molecular weights of each fragment are shown in brackets. […] Degradation fragments, theoretical molecular weights (Mr) and retention times (RT) are shown. Theoretical molecular weights of each fragment are shown in brackets.

[2] = system: NIH Swiss mice fed a high-fat diet for 150 days; test: Acute and delayed i.p. glucose tolerance test, blood glucose and plasma insulin; format: in vivo; settings: for Effect on the glucose lowering properties of (Tyr^13)apelin-13 and apelin-13-amide: administered in combination, each 25 nmol/kg
Procedure: Plasma glucose and plasma insulin concentrations were measured prior to and after i.p. administration of glucose alone (18 mmol/kg body weight), or in combination with apelin analogues (25 nmol/kg body weight) in 18 h fasted mice fed a high-fat diet for 150 days. Values represent mean±SEM for eight mice (n=8). *P<0.05, **P<0.01 and ***P<0.001 compared to glucose alone. FIG. 6 illustrates effect of i.p. administration of glucose alone (18 mmol/kg body weight), ([…])apelin-13 and ([…])apelin-13 alone or in combination (each 25 nmol/kg body weight) on (A) blood glucose and (B) plasma insulin in 18 h fasted mice fed a high-fat diet for 150 days. Values represent mean±SEM for eight mice (n=8). *p<0.05 and **p<0.01 compared to glucose alone, ^+P<0.05 compared to ([…])apelin-13, ^∇P<0.05 and ^∇∇P<0.01 compared to ([…])apelin-13. FIG. 10 illustrates tests conducted 2 h after administration of apelin related analogues (25 nmol/kg body wt) in 18 h fasted mice fed a high-fat diet for 150 days. (A) Blood glucose and (B) plasma insulin was measured before and after i.p. administration of glucose (18 mmol/kg body wt) alone or in combination with apelin analogues. Values represent mean±SEM for eight mice (n=8). *P<0.05 and **P<0.01 compared to glucose alone. FIG. 11 illustrates tests conducted 8 h after administration of apelin related analogues (25 nmol/kg body wt) in 18 h fasted mice fed a high-fat diet for 150 days. (A) Blood glucose and (B) plasma insulin was measured before and after i.p. administration of glucose (18 mmol/kg body wt) alone or in combination with apelin analogues. Values represent mean±SEM for eight mice (n=8). *P<0.05 and **P<0.01 compared to glucose alone. FIG. 12 illustrates acute effects of fatty acid modified apelin analogues on glucose-lowering and insulin release in high fat fed Swiss NIH mice with dietary-induced diabetes. (A) Blood glucose and (B) plasma insulin concentrations were measured prior to and after i.p. administration of glucose alone (18 mmol/kg body weight), or in combination with apelin analogues (25 nmol/kg body weight) in 18 h fasted mice fed a high-fat diet for 150 days. Values represent mean±SEM for eight mice (n=8). *P<0.05, compared to glucose alone. FIG. 13 illustrates tests conducted 16 h after administration of fatty acid apelin analogues (25 nmol/kg body wt) in mice fed a high-fat diet for 150 days. (A) Blood glucose and (B) plasma insulin was measured before and after i.p. administration of glucose (18 mmol/kg body wt) alone or in combination with apelin analogues. Values represent mean±SEM for eight mice (n=8). *P<0.05, **P<0.01 and ***P<0.001 compared to glucose alone. NIH Swiss mice (Harlan UK Ltd., Blackthorne, UK) were derived from a nucleus colony obtained from the National Institute of Health, Bethesda, Md., USA. One group of mice were maintained on a standard rodent diet (10% fat, 30% protein, 60% carbohydrate; percent of total energy 12.99 kJ/g, Trouw Nutrition, Cheshire, UK) and used as a model of normal glycaemia. Other NIH Swiss mice were maintained on a high fat diet (45% fat, 20% protein, 35% carbohydrate; percent of total energy 26.15 […], UK) from 8 weeks of age for 150 days to produce a model of diet induced obesity-diabetes. […] All mice were housed in an air-conditioned room maintained at 22±2° C. with a 12 h light: 12 h dark cycle (08:00-20:00 h), were singly caged, and selected for experimental groups according to body weight and non-fasted blood glucose. Drinking water and diet were freely available. All animal studies were performed in accordance with the UK Animals (Scientific Procedures) Act 1986. For acute in vivo studies, blood samples were collected from the cut tip of the tail vain of fasted, conscious mice into fluoride/heparin coated glucose microcentrifuge tubes (Sarstedt, Germany) immediately prior to (t=0) and at 15, 30, 60 and 105 min following i.p. injection of glucose ([…]).

[3] = NIH Swiss, mouse, plasma, pH 7.4
[4] = acute, alone and in combination, each 25 nmol/kg i.p. with glucose, Table 5
[5] = acute, peptide 25 nmol/kg i.p. with glucose 18 mmol/kg, Table 4
[6] = following a 2 h delay, 25 nmol/kg
[7] = following a 8 h delay, 25 nmol/kg
[8] = fatty acid derived agonists, 16 h delayed i.p. glucose tolerance test, 25 nmol/kg
[9] = fatty acid derived agonists, acute i.p. glucose tolerance test, 25 nmol/kg

Compound | Degradation fragment, Peak 1 [1] | Rank order of stability [1] | half-life at 263 µg/mL [1, 3] | remaining at 4 h, 263 µg/mL [1, 3] | Rank order on basis of anti-hyperglycaemic efficacy ([2]; acute, Table 4) | Glucose lowering, where glucose alone = 100% [2, 4] | Insulin secretion, where glucose alone = 100% [2, 4] | Blood glucose as percent of glucose-alone control (lower = stronger glucose lowering) [2, 5] | Insulin secretion, where glucose alone = 100% [2, 5] | other results
CSCC[C@H](NC(=O)[C@@H]1CCCN1C(=O)CNC(=O)[C@H](CCCCN)NC(=O)[C@H](Cc1c[nH]cn1)NC(=O)[C@H](CO)NC(=O)[C@H](CC(C)C)NC(=O)[C@H](CCCNC(=N)N)NC(=O)[C@@H]1CCCN1C(=O)[C@H](CCCNC(=N)N)NC(=O)[C@@H](N)CCC(N)=O)C(=O)N1CCC[C@H]1C(=O)N[C@@H](C)C(=O)O [(Ala^13)apelin-13, reference compound] | (Ala^13)apelin-13 (1-8) | 8 | 10.3 h | 70.5 ± 2.2% | 9 | 118% (*) | 74% (*) | 118% (*) | 74% (**) | Degradation fragment, Peak 2 [1]: (Ala^13)apelin-13 (1-11); Effect on the glucose lowering properties of (Tyr^13)apelin-13 and apelin-13-amide [2]: blocked the glucose lowering properties
CSCC[C@H](NC(=O)[C@@H]1CCCN1C(=O)CNC(=O)[C@H](CCCCN)NC(=O)[C@H](Cc1c[nH]cn1)NC(=O)[C@H](CO)NC(=O)[C@H](CC(C)C)NC(=O)[C@H](CCCNC(=N)N)NC(=O)[C@@H]1CCCN1C(=O)[C@H](CCCNC(=N)N)NC(=O)[C@@H](N)CCC(N)=O)C(=O)N1CCC[C@H]1C(=O)N[C@@H](Cc1ccc(O)cc1)C(=O)O [(Tyr^13)apelin-13] | (Tyr^13)apelin-13 (1-7) | 10 | 8.5 h | 76.7 ± 1.3% | 4 | 77% (*) | 131% (*) | 77% (*) | 131% (*) | Degradation fragment, Peak 2 [1]: (Tyr^13)apelin-13 (1-12); Rank order on basis of anti-hyperglycaemic efficacy ([2]; following a 2 h delay): 4; Blood glucose as percent of glucose-alone control (lower = stronger glucose lowering) [2, 6]: 85% ^; Insulin secretion, where glucose alone = 100% [2, 6]: 116% ^; Rank order on basis of anti-hyperglycaemic efficacy ([2]; following a 8 h delay): 4; Blood glucose as percent of glucose-alone control (lower = stronger glucose lowering) [2, 7]: 91% ^; Insulin secretion, where glucose alone = 100% [2, 7]: 104%
CSCC[C@H](NC(=O)[C@@H]1CCCN1C(=O)CNC(=O)[C@H](CCCCN)NC(=O)[C@H](Cc1c[nH]cn1)NC(=O)[C@H](CO)NC(=O)[C@H](CC(C)C)NC(=O)[C@H](CCCNC(=N)N)NC(=O)[C@@H]1CCCN1C(=O)[C@H](CCCNC(=N)N)NC(=O)[C@@H](N)CCC(N)=O)C(=O)N1CCC[C@H]1C(=O)N[C@H](C(=O)O)C(C)C [(Val^13)apelin-13] | (Val^13)apelin-13 (1-12) | 11 | 7.7 h | 66.5 ± 1.1% | 10 | 124% (**) | 68% (**) | 124% (**) | 68% (*) | Effect on the glucose lowering properties of (Tyr^13)apelin-13 and apelin-13-amide [2]: blocked the glucose lowering properties
CSCC[C@H](NC(=O)[C@@H]1CCCN1C(=O)CNC(=O)[C@H](CCCCN)NC(=O)[C@H](Cc1c[nH]cn1)NC(=O)[C@H](CO)NC(=O)[C@H](CC(C)C)NC(=O)[C@H](CCCNC(=N)N)NC(=O)[C@@H]1CCCN1C(=O)[C@@H](N)CCCNC(=N)N)C(=O)N1CCC[C@H]1C(=O)N[C@@H](Cc1ccccc1)C(=O)O [Apelin-12, reference compound] | – | 13 | – | 39.5 ± 1.9% | – | – | – | – | – | half-life ([1]; mouse, plasma): 3.4 h
CCCCCCCCCCCCCCCC(=O)N[C@@H](CCC(=O)NCCCC[C@H](NC(=O)[C@H](Cc1c[nH]cn1)NC(=O)[C@H](CO)NC(=O)[C@H](CC(C)C)NC(=O)[C@H](CCCNC(=N)N)NC(=O)[C@@H]1CCCN1C(=O)[C@H](CCCNC(=N)N)NC(=O)[C@@H](N)CCC(N)=O)C(=O)NCC(=O)N1CCC[C@H]1C(=O)N[C@@H](CCSC)C(=O)N1CCC[C@H]1C(=O)N[C@@H](Cc1ccc(O)cc1)C(=O)O)C(=O)O [Lys^8GluPAL(Tyr^13)apelin-13] | – | =1 | > 24 h | 100% | – | – | – | – | – | Half-life (t1/2) ([1]; NIH Swiss, mouse, plasma, 263 µg/mL, pH 7.4): >24 h; Rank order on basis of anti-hyperglycaemic efficacy ([2]; fatty acid derived agonists, 16 h delay): 3; Blood glucose as percent of glucose-alone control (lower = stronger glucose lowering) [2, 8]: 91% ^; Insulin secretion, where glucose alone = 100% [2, 8]: 126% (*); Rank order on basis of anti-hyperglycaemic efficacy ([2]; fatty acid derived agonists, acute): 3; Glucose lowering, where glucose alone = 100% [2, 9]: 93%; Insulin secretion, where glucose alone = 100% [2, 9]: 104%
CSCC[C@H](NC(=O)[C@@H]1CCCN1C(=O)CNC(=O)[C@H](CCCCN)NC(=O)[C@H](Cc1cnc[nH]1)NC(=O)[C@H](CO)NC(=O)[C@H](CC(C)C)NC(=O)[C@H](CCCNC(=N)N)NC(=O)[C@@H]1CCCN1C(=O)[C@H](CCCNC(=N)N)NC(=O)[C@@H]1CCC(=O)N1)C(=O)N1CCC[C@H]1C(=O)N[C@@H](C)C(=O)O [pGlu(Ala^13)apelin-13, pGlu (Ala^13)apelin-13] | (1-7) | 6 | 11.1 h | 74.4 ± 5.2% | 7 | – | – | 110% ^ | 86% (*) | –
LVQPRGSRNGPGPWQGGRRKFRRQRPRLSHKGPMPF [Apelin-36, reference compound] | – | 15 | 1.3 h | 5.5 ± 0.6% | – | – | – | – | – | –
